Assay results from US20230084899A1, “COMBINATION OF AN AHR-INHIBITOR AND AN PD1-INHIBITOR ANTIBODY AND ITS USE IN THE TREATMENT OF CANCER” (Bayer Aktiengesellschaft, priority 2019, published 2023).
Entries after “also recorded” stand apart in the source; their conditions may differ.

Assays:
[1] = system: tumor cell proliferation; experiment: Anti-proliferative effect of the combination (tumor cell proliferation); format: cell-based
[2] = system: human T cell/DC co-cultures; experiment: Mixed lymphocyte reaction: IL-2 in supernatants of matured DC / T cell co-culture; format: cell-based
Protocol: Whole blood samples from healthy donors were collected and PBMCs were isolated using density gradient centrifugation for 15 min at 800×g at room temperature with Biocoll separation solution (density […]; Biochrom, #L6115). The supernatants were discarded and the PBMCs were poured into 50 ml tubes, washed with PBS without Ca^+/Mg^+, counted and resuspended in MACS separation buffer (Miltenyi Biotec). The monocytes were isolated from PBMCs using the Monocyte Isolation Kit II (Miltenyi Biotec, Cat #130-091-153) according to manufacturer's instructions. On the day of co-culture, T cells were isolated from PBMC preparations obtained from whole blood of different donors using the Pan T Cell Isolation Kit (Auto MACS Pro, Cat #130-096-535).
Monocytes were differentiated into monocyte-derived dendritic cells (moDCs) using 100 ng/ml GM-CSF (R&D Systems, Cat #215-GM) and 100 ng/ml rhIL4 (R&D Systems, Cat #204-IL) for 6 days at 37° C., 5% CO2. To produce mature DCs, moDCs were further matured for 24 h with IFNγ (R&D Systems, Cat #285-IF) and lipopolysaccharide (LPS) from Escherichia coli O127: B8 (Sigma, Cat #L4516).
For the co-culture assay, matured DCs and T cells from different donors were used. The cells were seeded in 96-well plates (Costar, Cat #3585) at 1×10^4 cells/well for matured DCs and 5×10^4 cells/well for T cells. A serial dilution of component A (3× dilution steps) in combination with anti-programmed cell death 1 antibody (as component B: aPD-1; 1 μg/ml pembrolizumab or 3 μg/ml nivolumab) or respective concentrations of hIgG4 (isotype control TPP10747, PPB11084) was added and the cells were incubated for 3 days at 37° C., 5% CO2.
IL-2 cytokine levels were measured in aliquots of supernatants using the Human IL-2 Tissue Culture kit (Meso Scale Discovery, Cat #K151AHB-4).

C[C@@H](CO)NC(=O)c1cc(-c2ccc(Cl)cc2)nn(-c2cnn(C)c2)c1=O [6-(4-Chlorophenyl)-N-[(2S)-1-hydroxypropan-2-yl]-2-(1-methyl-1H-pyrazol-4-yl)-3-oxo-2,3-dihydropyridazine-4-carboxamide] was tested, and the “inhibiting tumor cell proliferation” value ([1]; in combination with nivolumab) was “synergistic effects” and the “anti-proliferative effect / inhibiting tumor cell proliferation” value ([1]; in combination with pembrolizumab) was “very strong synergy; also recorded: synergistic effects”.
C[C@@H](CO)NC(=O)c1cc(-c2ccc(Cl)cc2)nn(-c2cnn(C)c2)c1=O [component A, 6-(4-Chlorophenyl)-N-[(2S)-1-hydroxypropan-2-yl]-2-(1-methyl-1H-pyrazol-4-yl)-3-oxo-2,3-dihydropyridazine-4-carboxamide] was tested, and the “T cell activity (observed by IL-2 production)” value ([2]; alone and in combination with PD1 antibodies) was “enhances T cell activity”, the “IL-2 production from T cells” value ([2]; component A alone (component A+hIgG4 isotype control), serial dilution, 3 days co-culture) was “dose-dependent response” and the “IL-2 levels, combination compared to aPD-1 or component A alone” value ([2]; component A serial dilution + 1 μg/ml pembrolizumab, 3 days co-culture (FIG. 1)) was “higher IL-2 levels”. The “IL-2 levels, combination compared to aPD-1 or component A alone” value ([2]; component A serial dilution + 3 μg/ml nivolumab, 3 days co-culture (FIG. 2)) was “higher IL-2 levels”.
